Results on eleven compounds are retold here after ChEMBL document CHEMBL1201862, “PubChem BioAssay data set” (2004).

Test systems include ACHN; CAKI-1; HCC 2998; HL-60; HOP-92; Hs-578T; MCF7; MDA-MB-231; MOLT-4; NCI-H460; OVCAR-5; PC-3; RPMI-8226; SK-OV-3; SR; SW-620; UACC-62; UO-31; SK-MEL-28; A498.
What all share (assay): NCI tumour cell line growth inhibition, 48 h

Each structure is given as a SMILES string.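 Protocol summary: plate cells (96-well), add compound at 5 concentrations, incubate 48 h, interpolate endpoints linearly. GI50 is the concentration that inhibits growth by half.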 Activity calls are given as the source filed them. Rule as the data show it: active = GI50 up to about 1.1 µM and inactive = higher.

Consider `Clc1ccc(Cc2nc3ccccc3nc2-c2cccc(Cl)c2)cc1`, for which the GI50 with ACHN is 1.93 µM (inactive); with CAKI-1 it was 2.73 µM (inactive); with HCC 2998, 1.85 µM (inactive); in the test with HL-60, 2.51 µM (inactive); in the test with HOP-92, 1.7 µM (inactive); in the test on Hs-578T, 3.47 µM (inactive). The GI50 in the test on MCF7 was 2.92 µM (inactive); in the test with MDA-MB-231 it was 2.47 µM (inactive); in the test on MOLT-4, 2.06 µM (inactive); in the test with NCI-H460 it was 16.3 µM (inactive); with OVCAR-5 it was 7.38 µM (inactive); with PC-3, 2.26 µM (inactive). For the same compound, the GI50 in the test with RPMI-8226 was 0.405 µM (active); in the test with SK-OV-3 it was 17.2 µM (inactive); with SR, 1.54 µM (inactive); in the test with SW-620 it was 1.61 µM (inactive); in the test with UACC-62, 1.86 µM (inactive); with UO-31, 1.78 µM (inactive).
For `Cc1nnc2sc(-c3ccc(N)cc3)nn12`, the GI50 in the test with ACHN is > 100 µM (inactive); in the test with CAKI-1, > 100 µM (inactive); in the test on HCC 2998, > 100 µM (inactive); in the test on HL-60, > 100 µM (inactive); in the test on HOP-92, > 100 µM (inactive); in the test on Hs-578T it was 89.3 µM (inactive). Also, the GI50 in the test on MCF7, with MDA-MB-231, with MOLT-4, with NCI-H460, in the test with OVCAR-5 and in the test on PC-3 was > 100 µM (inactive) throughout. Moreover, the GI50 in the test on RPMI-8226, with SK-MEL-28, in the test on SK-OV-3, in the test on SR, in the test on SW-620 and in the test with UACC-62 was > 100 µM (inactive) each time. The GI50 in the test with UO-31 was > 100 µM (inactive).
`CCNC1=C(NC(=O)CC)C(=O)c2ccccc2C1=O`: the GI50 is > 100 µM (inactive) in the test with ACHN; 73.1 µM (inactive) with HCC 2998; 74.8 µM (inactive) in the test on HL-60; > 100 µM (inactive) in the test on HOP-92; > 100 µM (inactive) in the test with Hs-578T; > 100 µM (inactive) in the test with MCF7. For the same compound, the GI50 in the test with MDA-MB-231 was > 100 µM (inactive); in the test on MOLT-4 it was > 100 µM (inactive); with NCI-H460, > 100 µM (inactive); with OVCAR-5, > 100 µM (inactive); in the test on PC-3, 42.6 µM (inactive); with RPMI-8226, > 100 µM (inactive). For the same compound, the GI50 in the test with SK-MEL-28 is > 100 µM (inactive); in the test with SK-OV-3, > 100 µM (inactive); with SR, > 100 µM (inactive); with SW-620, 60.4 µM (inactive); in the test on UACC-62 it was 74.5 µM (inactive).
As to `CSc1c(C#N)c(=O)n(N)c2c1c(C)nn2-c1ccccc1`, the GI50 with A498 was 21.4 µM (inactive); in the test with CAKI-1, 19.9 µM (inactive); with HCC 2998 it was 18.1 µM (inactive); with HL-60, 26.2 µM (inactive); in the test on Hs-578T, 51.4 µM (inactive); in the test on MCF7 it was 16.6 µM (inactive). Also, the GI50 is 17.6 µM (inactive) in the test on MDA-MB-231; 27.5 µM (inactive) in the test on MOLT-4; > 100 µM (inactive) in the test with NCI-H460; 24.1 µM (inactive) with OVCAR-5; 19.7 µM (inactive) with PC-3; 21.9 µM (inactive) in the test on RPMI-8226. Further, the GI50 with SK-MEL-28 is 35.4 µM (inactive); in the test with SK-OV-3, 26.4 µM (inactive); in the test on SR, 23.6 µM (inactive); with SW-620, 35.9 µM (inactive); in the test on UACC-62 it was 22 µM (inactive); in the test with UO-31, 18.5 µM (inactive).
For `CCC(c1ccccc1)c1cc(C(C)(C)C)cc(C(C)(C)C)c1O` (centres undefined), the GI50 was 19.7 µM (inactive) in the test on A498; 18.6 µM (inactive) in the test on ACHN; 16.2 µM (inactive) in the test on CAKI-1; 15.8 µM (inactive) in the test with HCC 2998; 16.5 µM (inactive) in the test with HOP-92; 16.3 µM (inactive) in the test on Hs-578T. Also, the GI50 is 20.1 µM (inactive) with MCF7; 18.1 µM (inactive) with MDA-MB-231; 17.5 µM (inactive) with NCI-H460; 13.7 µM (inactive) in the test on OVCAR-5; 17.7 µM (inactive) with PC-3; 13.6 µM (inactive) in the test with RPMI-8226. Moreover, the GI50 in the test on SK-MEL-28 is 18.3 µM (inactive); with SK-OV-3, 14.9 µM (inactive); in the test on SR it was 31.7 µM (inactive); with SW-620, 16.5 µM (inactive); in the test on UACC-62 it was 18 µM (inactive); with UO-31, 18.4 µM (inactive).
Consider `Cc1n[nH]c(=O)n1N1C(=O)c2ccccc2C1=O`, for which the GI50 with A498, in the test on ACHN, with CAKI-1, with HCC 2998, with HOP-92 and with Hs-578T was > 100 µM (inactive) throughout. Further, the GI50 with MCF7, in the test on MDA-MB-231, in the test on MOLT-4, with NCI-H460, with OVCAR-5 and in the test with PC-3 was > 100 µM (inactive) in each case. Also, the GI50 in the test on SK-MEL-28, in the test with SR, in the test on SW-620, with UACC-62 and with UO-31 was > 100 µM (inactive) throughout.
As for `CCCCC/C=C1/CC(CO)(COC(=O)CC(C(C)C)C(C)C)OC1=O` (centres undefined), the GI50 in the test on A498 was 13 µM (inactive); in the test on ACHN, 11.4 µM (inactive); in the test with CAKI-1, 10.7 µM (inactive); in the test on HCC 2998 it was 16.7 µM (inactive); with HOP-92, 7.35 µM (inactive); in the test with Hs-578T, 2.28 µM (inactive). For the same compound, the GI50 is 17.1 µM (inactive) with MCF7; 15.6 µM (inactive) with MDA-MB-231; 5.42 µM (inactive) in the test on MOLT-4; 13.2 µM (inactive) in the test on NCI-H460; 15.4 µM (inactive) in the test on OVCAR-5; 10.1 µM (inactive) with PC-3. Further, the GI50 was 13 µM (inactive) in the test with SK-MEL-28; 18.9 µM (inactive) in the test on SK-OV-3; 16.6 µM (inactive) in the test on SR; 18.3 µM (inactive) in the test on SW-620; 13.7 µM (inactive) with UACC-62; 11.9 µM (inactive) in the test with UO-31.
On to `O/N=N\c1nc(-c2ccccn2)nc2ccccc12`, for which the GI50 with A498 was 32.4 µM (inactive); in the test with ACHN, 2.14 µM (inactive); in the test on CAKI-1, 2.12 µM (inactive); in the test with HCC 2998 it was 9.71 µM (inactive); in the test with HL-60, 0.984 µM (active); in the test on Hs-578T it was > 100 µM (inactive). For the same compound, the GI50 was 4.76 µM (inactive) in the test with MCF7; 13.3 µM (inactive) with MDA-MB-231; 0.373 µM (active) with MOLT-4; 2.49 µM (inactive) in the test on NCI-H460; 27.1 µM (inactive) in the test with OVCAR-5; 11.7 µM (inactive) in the test on PC-3. The GI50 in the test with SK-MEL-28 is 16 µM (inactive); with SK-OV-3, 55.5 µM (inactive); in the test with SR, 2.38 µM (inactive); in the test on SW-620, 5.35 µM (inactive); in the test on UACC-62, 7.18 µM (inactive); in the test with UO-31 it was 18.7 µM (inactive).
As for `CC1(C)CNC(c2ccc3c(c2)Cc2cc(C4=NC(C)(C)CN4)ccc2-3)=N1`, the GI50 in the test on A498 was 77.8 µM (inactive); in the test with ACHN, > 100 µM (inactive); in the test with CAKI-1, > 100 µM (inactive); with HCC 2998, 26.2 µM (inactive); in the test with HOP-92, 90.8 µM (inactive); with Hs-578T, 64.7 µM (inactive). The GI50 with MCF7 was 23.3 µM (inactive); in the test with MDA-MB-231 it was 39.1 µM (inactive); in the test on MOLT-4, 31.9 µM (inactive); in the test with NCI-H460, 30.8 µM (inactive); in the test with OVCAR-5 it was > 100 µM (inactive); in the test with PC-3, 39.8 µM (inactive). In addition, the GI50 is 25.2 µM (inactive) in the test with RPMI-8226; 38.7 µM (inactive) in the test on SK-MEL-28; 44.5 µM (inactive) with SK-OV-3; 32.5 µM (inactive) in the test with SR; 34.5 µM (inactive) in the test with SW-620; 25.3 µM (inactive) in the test on UACC-62. The GI50 in the test with UO-31 was > 100 µM (inactive).
In the case of `COC(=O)c1cc2c(cc1CC1Cc3cc4c(cc3C1=O)CCC4)CCC2` (centres undefined), the GI50 was 56 µM (inactive) in the test on A498; > 100 µM (inactive) in the test on ACHN; > 100 µM (inactive) in the test on CAKI-1; 43.7 µM (inactive) in the test with HCC 2998; > 100 µM (inactive) in the test on HL-60; 15 µM (inactive) with Hs-578T. The GI50 in the test with MCF7 was 34 µM (inactive); in the test on MDA-MB-231 it was 53.8 µM (inactive); with MOLT-4 it was 13.5 µM (inactive); with NCI-H460 it was 40 µM (inactive); with OVCAR-5 it was > 100 µM (inactive); with PC-3, 10.7 µM (inactive). The GI50 was 25 µM (inactive) in the test on RPMI-8226; 76 µM (inactive) in the test on SK-MEL-28; 70.3 µM (inactive) with SK-OV-3; 45.4 µM (inactive) in the test on SR; 29.4 µM (inactive) with SW-620; 47.2 µM (inactive) in the test with UACC-62. In addition, the GI50 in the test on UO-31 was > 100 µM (inactive).
For the compound `C/C(=C\COP(=O)(O)OP(=O)(O)O)CC/C=C(\C)CNc1ccc([N+](=O)[O-])cc1`, the GI50 with ACHN, in the test on CAKI-1, in the test with HL-60, with HOP-92, in the test with Hs-578T and with MCF7 was > 100 µM (inactive) throughout. Besides, the GI50 in the test with MDA-MB-231, with MOLT-4, in the test with NCI-H460, in the test with OVCAR-5, in the test with PC-3 and in the test with RPMI-8226 was > 100 µM (inactive) in each case. Besides, the GI50 with SK-MEL-28, in the test on SK-OV-3, in the test on SR, in the test with SW-620, in the test with UACC-62 and in the test with UO-31 was > 100 µM (inactive) each time.
